{"source": "ChEMBL document CHEMBL4507274", "about": "(2021)", "key": {"[1]": {"target": "Epidermal growth factor receptor (Homo sapiens) (UniProt P00533)", "details": "Compound concentration 100.0 nM"}, "[2]": {"test_system": "Epidermal growth factor receptor (Homo sapiens), P00533 [UNDEFINED MUTATION]", "details": "Compound concentration 100.0 nM"}, "[3]": {"test_system": "Epidermal growth factor receptor (Homo sapiens), P00533 [T790M]", "details": "Compound concentration 100.0 nM"}, "[4]": {"target": "Alpha-2C adrenergic receptor (Homo sapiens) (UniProt P18825)", "sequence (P18825 whole entry)": "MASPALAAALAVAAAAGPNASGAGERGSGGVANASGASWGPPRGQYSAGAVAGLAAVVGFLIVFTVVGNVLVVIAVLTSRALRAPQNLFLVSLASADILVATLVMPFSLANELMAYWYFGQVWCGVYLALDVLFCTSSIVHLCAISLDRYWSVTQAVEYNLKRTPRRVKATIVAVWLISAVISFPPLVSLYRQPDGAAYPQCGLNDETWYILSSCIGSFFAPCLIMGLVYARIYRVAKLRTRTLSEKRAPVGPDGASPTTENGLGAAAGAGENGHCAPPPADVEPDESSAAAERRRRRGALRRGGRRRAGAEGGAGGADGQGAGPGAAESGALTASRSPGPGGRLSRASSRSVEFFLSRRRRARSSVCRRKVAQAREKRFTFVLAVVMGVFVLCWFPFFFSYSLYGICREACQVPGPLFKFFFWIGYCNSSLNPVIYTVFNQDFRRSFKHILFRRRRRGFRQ", "details": "Compound concentration 10.0 uM"}, "[5]": {"target": "AMP-activated protein kinase, AMPK (Rattus norvegicus) (UniProt P54645+Q09137+P80386+P80385+Q9QZH4+Q6V7V4+D4A7E4)", "experiment": "AMPK (r) Upstate kinase activity assay", "assay_type": "protein-complex assay", "details": "Compound concentration 10.0 uM"}, "[6]": {"target": "CDK6/cyclin D3 (Homo sapiens) (UniProt P30281+Q00534)", "experiment": "CDK6/ cyclin D3 (h) Upstate kinase activity assay", "assay_type": "protein-complex assay", "details": "Compound concentration 10.0 uM"}, "[7]": {"target": "T1, Ephrin type-B receptor 4 (Homo sapiens) (UniProt P54760)", "T1 sequence (whole entry)": "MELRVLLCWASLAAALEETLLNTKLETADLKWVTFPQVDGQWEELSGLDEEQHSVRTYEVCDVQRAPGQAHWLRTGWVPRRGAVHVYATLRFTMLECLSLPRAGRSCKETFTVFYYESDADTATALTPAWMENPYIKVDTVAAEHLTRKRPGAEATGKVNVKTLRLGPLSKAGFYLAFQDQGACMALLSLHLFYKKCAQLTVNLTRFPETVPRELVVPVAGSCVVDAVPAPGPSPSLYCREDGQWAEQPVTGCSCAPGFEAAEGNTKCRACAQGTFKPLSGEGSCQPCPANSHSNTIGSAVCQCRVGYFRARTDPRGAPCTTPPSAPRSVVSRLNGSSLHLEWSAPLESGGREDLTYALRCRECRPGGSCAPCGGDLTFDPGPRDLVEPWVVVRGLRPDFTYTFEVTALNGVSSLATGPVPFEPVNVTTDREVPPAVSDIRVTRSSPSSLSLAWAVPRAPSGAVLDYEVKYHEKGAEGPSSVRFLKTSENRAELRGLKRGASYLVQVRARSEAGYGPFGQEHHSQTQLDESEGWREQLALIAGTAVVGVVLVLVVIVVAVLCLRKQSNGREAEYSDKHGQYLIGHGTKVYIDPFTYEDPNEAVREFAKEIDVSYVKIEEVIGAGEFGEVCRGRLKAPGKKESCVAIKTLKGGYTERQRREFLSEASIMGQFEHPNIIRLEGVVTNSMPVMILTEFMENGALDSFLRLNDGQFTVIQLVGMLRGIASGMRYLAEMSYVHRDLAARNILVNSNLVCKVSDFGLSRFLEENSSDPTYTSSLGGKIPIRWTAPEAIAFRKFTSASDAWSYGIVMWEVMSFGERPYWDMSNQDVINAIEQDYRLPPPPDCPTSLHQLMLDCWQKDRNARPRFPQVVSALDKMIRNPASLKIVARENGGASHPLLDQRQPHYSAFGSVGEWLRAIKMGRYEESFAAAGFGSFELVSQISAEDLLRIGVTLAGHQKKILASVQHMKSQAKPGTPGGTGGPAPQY", "experiment": "EphB4 (h) Upstate kinase activity assay", "details": "Compound concentration 10.0 uM"}, "[8]": {"target": "T2, Serine/threonine-protein kinase Nek2 (Homo sapiens) (UniProt P51955)", "T2 sequence (whole entry)": "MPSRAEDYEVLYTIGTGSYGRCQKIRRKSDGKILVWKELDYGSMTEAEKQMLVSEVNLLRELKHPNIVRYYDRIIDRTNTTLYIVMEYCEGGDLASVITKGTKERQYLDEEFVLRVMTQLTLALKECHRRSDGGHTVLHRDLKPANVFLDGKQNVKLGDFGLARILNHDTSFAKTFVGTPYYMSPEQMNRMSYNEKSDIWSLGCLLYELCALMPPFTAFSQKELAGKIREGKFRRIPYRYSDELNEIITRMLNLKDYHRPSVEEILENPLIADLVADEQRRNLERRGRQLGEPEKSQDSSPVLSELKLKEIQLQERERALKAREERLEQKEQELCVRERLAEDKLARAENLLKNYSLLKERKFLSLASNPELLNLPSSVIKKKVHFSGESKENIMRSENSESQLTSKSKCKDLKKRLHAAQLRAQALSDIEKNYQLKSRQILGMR", "experiment": "NEK2 (h) Upstate kinase activity assay", "details": "Compound concentration 10.0 uM"}, "[9]": {"target": "Ribosomal protein S6 kinase alpha-2 (Homo sapiens) (UniProt Q15349)", "sequence (Q15349 whole entry)": "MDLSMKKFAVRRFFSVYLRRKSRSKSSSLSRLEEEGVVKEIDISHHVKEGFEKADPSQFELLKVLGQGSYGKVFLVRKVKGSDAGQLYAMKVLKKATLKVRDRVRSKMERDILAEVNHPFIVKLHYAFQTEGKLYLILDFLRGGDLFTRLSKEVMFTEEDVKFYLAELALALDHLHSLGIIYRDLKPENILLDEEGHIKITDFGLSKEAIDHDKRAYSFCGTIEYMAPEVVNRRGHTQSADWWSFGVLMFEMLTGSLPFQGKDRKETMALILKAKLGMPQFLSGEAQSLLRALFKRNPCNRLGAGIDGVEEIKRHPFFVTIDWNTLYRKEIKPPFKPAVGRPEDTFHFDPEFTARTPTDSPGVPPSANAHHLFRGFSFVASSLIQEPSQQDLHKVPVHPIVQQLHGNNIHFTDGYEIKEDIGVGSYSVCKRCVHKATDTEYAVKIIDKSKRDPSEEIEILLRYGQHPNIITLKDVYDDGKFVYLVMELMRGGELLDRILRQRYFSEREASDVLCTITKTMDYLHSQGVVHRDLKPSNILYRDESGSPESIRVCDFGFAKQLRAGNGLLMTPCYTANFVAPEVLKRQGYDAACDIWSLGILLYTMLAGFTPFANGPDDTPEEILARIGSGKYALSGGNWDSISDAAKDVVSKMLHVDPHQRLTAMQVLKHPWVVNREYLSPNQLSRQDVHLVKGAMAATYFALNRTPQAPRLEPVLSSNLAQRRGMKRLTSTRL", "experiment": "Rsk3 (h) Upstate kinase activity assay", "details": "Compound concentration 10.0 uM"}, "[10]": {"target": "T3, Serine/threonine-protein kinase Sgk1 (Homo sapiens) (UniProt O00141)", "T3 sequence (whole entry)": "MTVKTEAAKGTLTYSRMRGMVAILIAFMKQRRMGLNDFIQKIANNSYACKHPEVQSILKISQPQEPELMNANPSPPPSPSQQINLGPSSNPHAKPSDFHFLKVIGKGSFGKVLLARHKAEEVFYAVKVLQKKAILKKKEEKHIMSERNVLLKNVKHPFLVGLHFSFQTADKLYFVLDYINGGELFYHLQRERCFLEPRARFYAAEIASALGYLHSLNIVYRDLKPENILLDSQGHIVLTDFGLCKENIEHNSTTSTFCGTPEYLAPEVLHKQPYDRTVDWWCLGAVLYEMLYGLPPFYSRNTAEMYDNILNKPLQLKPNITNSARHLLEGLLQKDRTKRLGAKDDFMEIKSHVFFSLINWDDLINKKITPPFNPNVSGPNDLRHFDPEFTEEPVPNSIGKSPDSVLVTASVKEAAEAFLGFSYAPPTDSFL", "experiment": "SGK (h) Upstate kinase activity assay", "details": "Compound concentration 10.0 uM"}, "[11]": {"target": "Tyrosine-protein kinase Yes (Homo sapiens) (UniProt P07947)", "sequence (P07947 2-543 limits assumed)": "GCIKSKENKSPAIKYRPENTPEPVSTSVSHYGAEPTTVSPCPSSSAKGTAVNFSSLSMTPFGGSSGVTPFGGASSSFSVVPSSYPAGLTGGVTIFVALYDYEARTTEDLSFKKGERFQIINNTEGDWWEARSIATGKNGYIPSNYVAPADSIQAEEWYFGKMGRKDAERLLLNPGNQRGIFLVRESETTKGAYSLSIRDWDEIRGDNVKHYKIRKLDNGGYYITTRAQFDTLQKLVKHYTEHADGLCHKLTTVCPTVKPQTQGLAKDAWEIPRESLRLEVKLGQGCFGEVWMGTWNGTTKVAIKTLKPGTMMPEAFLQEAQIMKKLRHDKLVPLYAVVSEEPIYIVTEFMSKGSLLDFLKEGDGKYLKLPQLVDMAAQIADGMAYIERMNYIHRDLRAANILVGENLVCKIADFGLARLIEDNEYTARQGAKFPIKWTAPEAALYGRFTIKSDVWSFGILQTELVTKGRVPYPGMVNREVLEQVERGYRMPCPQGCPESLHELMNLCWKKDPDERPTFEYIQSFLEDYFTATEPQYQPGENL", "experiment": "Yes (h) Upstate kinase activity assay", "details": "Compound concentration 10.0 uM"}, "[12]": {"test_system": "A549", "experiment": "Lung A549 cell line MDS Pharma Services Proliferation Assay", "assay_type": "functional, cell-based, Homo sapiens"}, "[13]": {"experiment": "Lymphoma1-1331-IJ- JAl cell line MDS Pharma Services Proliferation Assay", "assay_type": "functional, cell-based, Homo sapiens"}, "[14]": {"test_system": "U-937", "experiment": "Lymphoma U937 cell line MDS Pharma Services Proliferation Assay", "assay_type": "functional, cell-based, Homo sapiens"}, "[15]": {"details": "Homo sapiens, Lymphoma1-1331-IJ- JAl"}}}
{"smiles": "Cn1cc(Cl)c2c(Oc3c(F)cc(Nc4cc(Cl)nc(N)n4)cc3F)ccnc21", "note": "[BAY-4900]", "values": [{"measurement": "residual activity", "setting": "[1]", "value": 97, "unit": "%"}, {"measurement": "residual activity", "setting": "[2]", "value": 52, "unit": "%"}, {"measurement": "residual activity", "setting": "[3]", "value": 88, "unit": "%"}, {"measurement": "inhibition", "setting": "[4]", "value": -6.8, "unit": "%"}]}
{"smiles": "Cc1c[nH]c2nccc(Oc3c(F)cc(Nc4cc(Cl)nc(N)n4)cc3F)c12", "note": "[BAY-549]", "values": [{"measurement": "inhibition", "setting": "[5]", "value": 8, "unit": "%"}, {"measurement": "inhibition", "setting": "[6]", "value": 9, "unit": "%"}, {"measurement": "inhibition", "setting": "[7]", "value": -9, "unit": "%"}, {"measurement": "inhibition", "setting": "[8]", "value": 19, "unit": "%"}, {"measurement": "inhibition", "setting": "[9]", "value": 48, "unit": "%"}, {"measurement": "inhibition", "setting": "[10]", "value": 76, "unit": "%"}, {"measurement": "inhibition", "setting": "[11]", "value": 23, "unit": "%"}, {"measurement": "IC50", "setting": "[12]; Homo sapiens, A549", "value": 1.5, "unit": "µM"}, {"measurement": "TGI", "setting": "[12]; Homo sapiens, A549", "value": 25, "unit": "µM"}, {"measurement": "CC50", "setting": "[12]; Homo sapiens, A549, read-out: LC50 (the source's name)", "value": "> 100", "unit": "µM"}, {"measurement": "Mean % growth (n = 2) for 1.0 µM probe concentration", "setting": "[12]; ± SEM 2 % growth", "value": 42, "unit": "%"}, {"measurement": "Mean % growth (n = 2) for 10.0 µM probe concentration", "setting": "[12]; ± SEM 2 % growth", "value": 7, "unit": "%"}, {"measurement": "Mean % growth (n = 2) for 100.0 µM probe concentration", "setting": "[12]; ± SEM 3 % growth", "value": -15, "unit": "%"}, {"measurement": "Mean % growth (n = 2) for 0.01 µM probe concentration", "setting": "[12]; ± SEM 4 % growth", "value": 103, "unit": "%"}, {"measurement": "Mean % growth (n = 2) for 0.1 µM probe concentration", "setting": "[12]; ± SEM 4 % growth", "value": 97, "unit": "%"}, {"measurement": "IC50", "setting": "[13]; [15]", "value": "> 100", "unit": "µM"}, {"measurement": "TGI", "setting": "[13]; [15]", "value": "> 100", "unit": "µM"}, {"measurement": "CC50", "setting": "[13]; Homo sapiens, Lymphoma1-1331-IJ- JAl, read-out: LC50 (the source's name)", "value": "> 100", "unit": "µM"}, {"measurement": "Mean % growth (n = 2) for 10.0 µM probe concentration", "setting": "[13]; ± SEM 1 % growth", "value": 98, "unit": "%"}, {"measurement": "Mean % growth (n = 2) for 0.1 µM probe concentration", "setting": "[13]; ± SEM 5 % growth", "value": 103, "unit": "%"}, {"measurement": "Mean % growth (n = 2) for 1.0 µM probe concentration", "setting": "[13]; ± SEM 6 % growth", "value": 97, "unit": "%"}, {"measurement": "Mean % growth (n = 2) for 100.0 µM probe concentration", "setting": "[13]; ± SEM 7 % growth", "value": 80, "unit": "%"}, {"measurement": "Mean % growth (n = 2) for 0.01 µM probe concentration", "setting": "[13]; ± SEM 8 % growth", "value": 96, "unit": "%"}, {"measurement": "IC50", "setting": "[14]; Homo sapiens, U-937", "value": 14, "unit": "µM"}, {"measurement": "TGI", "setting": "[14]; Homo sapiens, U-937", "value": "> 100", "unit": "µM"}, {"measurement": "CC50", "setting": "[14]; Homo sapiens, U-937, read-out: LC50 (the source's name)", "value": "> 100", "unit": "µM"}, {"measurement": "Mean % growth (n = 2) for 0.01 µM probe concentration", "setting": "[14]; ± SEM 1 % growth", "value": 101, "unit": "%"}, {"measurement": "Mean % growth (n = 2) for 0.1 µM probe concentration", "setting": "[14]; ± SEM 2 % growth", "value": 103, "unit": "%"}, {"measurement": "Mean % growth (n = 2) for 1.0 µM probe concentration", "setting": "[14]; ± SEM 2 % growth", "value": 104, "unit": "%"}, {"measurement": "Mean % growth (n = 2) for 100.0 µM probe concentration", "setting": "[14]; ± SEM 5 % growth", "value": 17, "unit": "%"}, {"measurement": "Mean % growth (n = 2) for 10.0 µM probe concentration", "setting": "[14]; ± SEM 7 % growth", "value": 56, "unit": "%"}]}
